Reference: patent US20080009418A1, “Selective Inhibitors” (Alchemia LTD., priority 2004, published 2008)

Legend:
Human neurokinin (NK1) = target: T1, Human neurokinin (NK1) (Homo sapiens, UniProt P25103); test: Radioligand binding, human neurokinin NK1 membranes, filtration, [125I]-Substance P; conditions: compound at 10 μM; for A8 radioligand binding inhibition: human neurokinin NK1 membranes
T1 construct: purchased Perkin Elmer Biosignal
Outline: (§1)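 Filtration binding on cloned human receptor membranes (1 Unit/well), [125I]-Substance P for NK1 and [3H]-Diprenorphine for KOP, 1 h at room temperature. Filters PEI-presoaked, washed with cold 50 mM Tris-HCl pH 7.4, counted by scintillation; percent inhibition calculated, reference ligand defining non-specific binding.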

Mouse urotensin (mUR2) = target: T2, Mouse urotensin (mUR2) (Mus musculus, UniProt Q8VIH9); test: Radioligand binding, mouse urotensin mUR2 membranes, FlashPlate, [125I]-Urotensin II; conditions: compound at 10 μM; for A11 radioligand binding inhibition: mouse urotensin mUR2 membranes
T2 construct: purchased Perkin Elmer Biosignal
T2 sequence (Q8VIH9 1-385): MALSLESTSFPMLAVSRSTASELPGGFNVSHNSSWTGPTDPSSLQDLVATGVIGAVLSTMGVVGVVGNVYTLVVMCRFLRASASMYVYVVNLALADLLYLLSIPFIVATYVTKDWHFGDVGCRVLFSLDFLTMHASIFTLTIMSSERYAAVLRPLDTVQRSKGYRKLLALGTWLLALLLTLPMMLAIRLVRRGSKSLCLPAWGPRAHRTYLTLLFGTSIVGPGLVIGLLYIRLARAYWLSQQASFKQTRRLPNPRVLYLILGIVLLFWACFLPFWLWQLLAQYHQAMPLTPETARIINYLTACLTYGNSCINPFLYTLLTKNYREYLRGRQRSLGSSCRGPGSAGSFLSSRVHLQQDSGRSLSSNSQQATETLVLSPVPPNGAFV
Outline: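 Cloned mouse urotensin (mUR2) receptor membranes from Perkin Elmer Biosignal were immobilized in FlashPlate microplates using a proprietary coating. Each well got 19.5 μl buffer, then 0.5 μl of DMSO, reference ligand, or compound. Adding 5 μl of [125I]-Urotensin II, diluted to 5× final concentration in binding buffer, started binding. Plates were sealed with TopSeal-A and incubated 1 hour at room temperature in the dark. Wells were counted for 30 seconds each on a TopCount after a 60-second delay, and percentage inhibition was calculated.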

[1] = target: T3, Human melanin-concentrating hormone (MCH1) (Homo sapiens, UniProt Q99705); test: Radioligand binding, human melanin-concentrating hormone MCH1 membranes, FlashPlate, [125I]-S36057; conditions: compound at 10 μM; for A6 radioligand binding inhibition: human MCH1 membranes
T3 construct: purchased Perkin Elmer Biosignal
Outline: (§2)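 Cloned human receptor membranes were coated onto FlashPlate wells and incubated with radioligand and compound (added from a 0.5 mM DMSO daughter plate) for 1 hour at room temperature in the dark. Scintillation counting gave percent inhibition, with DMSO defining total and reference ligand defining non-specific binding.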

Human opioid (ORL1) = target: T4, Human opioid (ORL1) (Homo sapiens, UniProt P41146); test: Radioligand binding, human opioid ORL1 membranes, FlashPlate, [125I]-Nociceptin; conditions: compound at 10 μM
T4 construct: purchased Perkin Elmer Biosignal
Outline: as §2

Human μ-opioid (MOP) = target: T5, Human μ-opioid (MOP) (Homo sapiens, UniProt P35372); test: Radioligand binding, human μ-opioid (MOP) membranes, FlashPlate, [3H]-Naloxone; conditions: compound at 10 μM; for A7 radioligand binding inhibition: human μ-opioid (MOP) membranes
T5 construct: purchased Perkin Elmer Biosignal
Outline: as §2

Human Melanocortin (MC3) = target: T6, Human Melanocortin (MC3) (Homo sapiens, UniProt P41968); test: Radioligand binding, human melanocortin MC3 membranes, FlashPlate, [125I]-NDP-αMSH; conditions: compound at 10 μM; for A3 radioligand binding inhibition: human melanocortin MC3 membranes
T6 construct: purchased Perkin Elmer Biosignal
Outline: as §2

Human melanocortin (MC5) = target: T7, Human melanocortin (MC5) (Homo sapiens, UniProt P33032); test: Radioligand binding, human melanocortin MC5 membranes, FlashPlate, [125I]-NDP-αMSH; conditions: compound at 10 μM; for A5 radioligand binding inhibition: human melanocortin MC5 membranes
T7 construct: purchased Perkin Elmer Biosignal
Outline: as §2

Human δ-opioid (DOP) = target: T8, Human δ-opioid (DOP) (Homo sapiens, UniProt P41143); test: Radioligand binding, human δ-opioid (DOP) membranes, FlashPlate, [3H]-Bremazocine; conditions: compound at 10 μM; for A1 radioligand binding inhibition: human δ-opioid (DOP) membranes
T8 construct: purchased Perkin Elmer Biosignal
Outline: as §2

Human Melanocortin (MC4) = target: T9, Human Melanocortin (MC4) (Homo sapiens, UniProt P32245); test: Radioligand binding, human melanocortin MC4 membranes, FlashPlate, [125I]-NDP-αMSH; conditions: compound at 10 μM; for A4 radioligand binding inhibition: human melanocortin MC4 membranes
T9 construct: purchased Perkin Elmer Biosignal
Outline: as §2

[2] = target: T10, Human neuropeptide Y (NPY-Y1) (Homo sapiens, UniProt P25929); test: Radioligand binding, human neuropeptide Y NPY-Y1 membranes, FlashPlate, [125I]-PYY; conditions: compound at 10 μM
T10 construct: purchased Perkin Elmer Biosignal
T10 sequence (P25929 1-384): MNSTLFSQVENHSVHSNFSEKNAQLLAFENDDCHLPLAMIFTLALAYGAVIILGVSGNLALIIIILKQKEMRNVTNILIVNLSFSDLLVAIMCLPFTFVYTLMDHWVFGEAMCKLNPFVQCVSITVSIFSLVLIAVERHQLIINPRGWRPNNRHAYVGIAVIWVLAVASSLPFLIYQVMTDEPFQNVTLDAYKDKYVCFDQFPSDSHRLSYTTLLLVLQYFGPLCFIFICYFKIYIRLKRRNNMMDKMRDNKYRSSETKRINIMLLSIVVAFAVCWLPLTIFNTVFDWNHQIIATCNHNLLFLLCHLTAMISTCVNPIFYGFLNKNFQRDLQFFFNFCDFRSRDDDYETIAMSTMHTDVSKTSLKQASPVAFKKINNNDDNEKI
Outline: as §2

Human κ-Opioid (KOP) = target: T11, Human κ-Opioid (KOP) (Homo sapiens, UniProt P41145); test: Radioligand binding, human κ-opioid (KOP) membranes, filtration, [3H]-Diprenorphine; conditions: compound at 10 μM; for A2 radioligand binding inhibition: human κ-opioid (KOP) membranes
T11 construct: purchased Perkin Elmer Biosignal
Outline: as §1

T9 sequence (P32245 whole entry): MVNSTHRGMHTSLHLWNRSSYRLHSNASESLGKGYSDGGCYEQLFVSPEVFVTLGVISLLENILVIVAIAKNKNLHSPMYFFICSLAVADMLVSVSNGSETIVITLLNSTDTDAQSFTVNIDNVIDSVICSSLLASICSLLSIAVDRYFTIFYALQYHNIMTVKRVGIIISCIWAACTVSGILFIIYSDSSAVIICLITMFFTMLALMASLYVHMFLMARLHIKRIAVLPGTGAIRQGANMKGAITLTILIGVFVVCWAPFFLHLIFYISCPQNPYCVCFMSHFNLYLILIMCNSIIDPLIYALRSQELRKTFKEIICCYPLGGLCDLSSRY
T3 sequence (Q99705 whole entry): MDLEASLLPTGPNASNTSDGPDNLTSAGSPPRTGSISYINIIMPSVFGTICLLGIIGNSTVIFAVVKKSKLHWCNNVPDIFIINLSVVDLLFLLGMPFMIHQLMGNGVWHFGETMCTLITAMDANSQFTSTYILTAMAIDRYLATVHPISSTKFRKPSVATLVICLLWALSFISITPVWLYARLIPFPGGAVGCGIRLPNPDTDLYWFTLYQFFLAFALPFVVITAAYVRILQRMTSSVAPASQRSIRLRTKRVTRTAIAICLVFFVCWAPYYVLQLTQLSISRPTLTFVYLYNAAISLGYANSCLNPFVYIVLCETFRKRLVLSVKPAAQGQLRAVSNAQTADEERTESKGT
T8 sequence (P41143 whole entry): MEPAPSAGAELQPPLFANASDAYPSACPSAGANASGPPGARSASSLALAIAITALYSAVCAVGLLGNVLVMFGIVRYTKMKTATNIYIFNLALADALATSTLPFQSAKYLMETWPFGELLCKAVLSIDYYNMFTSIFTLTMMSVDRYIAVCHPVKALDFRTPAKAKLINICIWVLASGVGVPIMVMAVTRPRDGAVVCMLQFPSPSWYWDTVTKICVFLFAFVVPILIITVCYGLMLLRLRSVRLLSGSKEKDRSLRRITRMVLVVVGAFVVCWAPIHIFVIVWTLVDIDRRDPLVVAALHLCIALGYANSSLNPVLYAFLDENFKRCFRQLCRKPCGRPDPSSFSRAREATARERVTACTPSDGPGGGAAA
T7 sequence (P33032 whole entry): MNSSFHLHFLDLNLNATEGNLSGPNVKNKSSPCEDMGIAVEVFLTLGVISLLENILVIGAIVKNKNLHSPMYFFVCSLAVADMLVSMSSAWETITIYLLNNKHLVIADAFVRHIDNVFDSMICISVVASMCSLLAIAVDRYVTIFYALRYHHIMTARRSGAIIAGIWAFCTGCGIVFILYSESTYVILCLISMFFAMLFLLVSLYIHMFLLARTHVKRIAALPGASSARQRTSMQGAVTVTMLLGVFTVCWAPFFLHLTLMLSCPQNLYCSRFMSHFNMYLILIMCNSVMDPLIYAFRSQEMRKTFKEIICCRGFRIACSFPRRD
T1 sequence (P25103 whole entry): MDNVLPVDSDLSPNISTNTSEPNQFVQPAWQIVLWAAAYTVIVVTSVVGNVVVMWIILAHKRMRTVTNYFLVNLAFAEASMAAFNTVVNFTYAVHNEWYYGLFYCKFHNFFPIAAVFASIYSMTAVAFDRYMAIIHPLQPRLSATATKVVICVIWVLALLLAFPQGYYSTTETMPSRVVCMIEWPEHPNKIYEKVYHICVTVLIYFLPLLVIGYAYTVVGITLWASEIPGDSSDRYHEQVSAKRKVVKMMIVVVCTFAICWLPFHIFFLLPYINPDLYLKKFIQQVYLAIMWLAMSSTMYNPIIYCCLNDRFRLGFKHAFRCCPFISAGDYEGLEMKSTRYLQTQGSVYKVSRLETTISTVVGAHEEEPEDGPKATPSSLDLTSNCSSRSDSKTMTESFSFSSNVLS
T11 sequence (P41145 whole entry): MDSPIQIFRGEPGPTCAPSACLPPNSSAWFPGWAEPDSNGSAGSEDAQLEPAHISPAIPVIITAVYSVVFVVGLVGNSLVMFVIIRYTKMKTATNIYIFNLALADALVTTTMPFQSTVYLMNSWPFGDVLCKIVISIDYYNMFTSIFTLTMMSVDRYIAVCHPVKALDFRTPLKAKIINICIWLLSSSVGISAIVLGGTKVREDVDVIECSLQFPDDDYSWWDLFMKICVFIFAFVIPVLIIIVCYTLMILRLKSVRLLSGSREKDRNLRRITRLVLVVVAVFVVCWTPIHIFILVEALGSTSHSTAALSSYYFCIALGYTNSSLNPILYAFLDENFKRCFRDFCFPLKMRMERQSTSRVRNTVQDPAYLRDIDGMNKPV
T4 sequence (P41146 whole entry): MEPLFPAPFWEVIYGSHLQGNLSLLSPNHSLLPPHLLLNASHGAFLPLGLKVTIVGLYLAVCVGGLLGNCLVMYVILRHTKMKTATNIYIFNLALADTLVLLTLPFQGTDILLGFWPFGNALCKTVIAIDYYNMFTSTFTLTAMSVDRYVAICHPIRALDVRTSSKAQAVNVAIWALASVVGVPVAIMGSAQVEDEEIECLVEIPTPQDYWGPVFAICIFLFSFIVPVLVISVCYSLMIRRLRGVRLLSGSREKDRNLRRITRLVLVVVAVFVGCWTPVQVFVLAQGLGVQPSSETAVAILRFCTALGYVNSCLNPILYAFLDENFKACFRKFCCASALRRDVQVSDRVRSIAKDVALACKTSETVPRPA
T5 sequence (P35372 whole entry): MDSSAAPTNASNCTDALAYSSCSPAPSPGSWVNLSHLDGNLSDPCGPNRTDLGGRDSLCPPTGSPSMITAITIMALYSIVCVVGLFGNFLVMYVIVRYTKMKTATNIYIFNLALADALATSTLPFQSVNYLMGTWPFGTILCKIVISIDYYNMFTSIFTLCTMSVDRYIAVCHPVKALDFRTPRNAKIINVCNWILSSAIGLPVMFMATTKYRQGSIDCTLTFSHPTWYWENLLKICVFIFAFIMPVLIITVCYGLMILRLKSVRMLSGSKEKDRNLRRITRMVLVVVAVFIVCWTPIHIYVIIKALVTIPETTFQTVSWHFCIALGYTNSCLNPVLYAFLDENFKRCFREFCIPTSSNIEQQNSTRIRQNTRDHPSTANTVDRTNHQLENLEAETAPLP
T6 sequence (P41968 whole entry): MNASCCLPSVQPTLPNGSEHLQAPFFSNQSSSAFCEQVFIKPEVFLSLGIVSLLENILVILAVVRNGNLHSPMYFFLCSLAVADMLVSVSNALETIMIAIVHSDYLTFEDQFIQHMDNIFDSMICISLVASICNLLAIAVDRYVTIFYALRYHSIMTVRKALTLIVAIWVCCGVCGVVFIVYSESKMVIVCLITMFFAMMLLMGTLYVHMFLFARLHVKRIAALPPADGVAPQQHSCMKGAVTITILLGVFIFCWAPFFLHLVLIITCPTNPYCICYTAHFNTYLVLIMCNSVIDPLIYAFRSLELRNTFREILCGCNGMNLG

Compound: COCC1OC(OCc2ccc(Cl)cc2)C(NC(=O)CNC(=N)N)C(OCc2ccc3ccccc3c2)C1O (stereo not shown) [compound 209]
- A8: inhibition of radioligand binding (Human neurokinin (NK1); [125I]-Substance P, filtration): + (“+” indicates greater than 50% inhibition at 10 μM)
- A11: inhibition of radioligand binding (Mouse urotensin (mUR2); [125I]-Urotensin II, FlashPlate): − (“−” indicates less than 50% inhibition at 10 μM)
- A6: inhibition of radioligand binding ([1]; [125I]-S36057, FlashPlate): − (“−” indicates less than 50% inhibition at 10 μM)
- A10: inhibition of radioligand binding (Human opioid (ORL1); [125I]-Nociceptin, FlashPlate): − (“−” indicates less than 50% inhibition at 10 μM)
- A7: inhibition of radioligand binding (Human μ-opioid (MOP); [3H]-Naloxone, FlashPlate): − (“−” indicates less than 50% inhibition at 10 μM)
- A3: inhibition of radioligand binding (Human Melanocortin (MC3); [125I]-NDP-αMSH, FlashPlate): + (“+” indicates greater than 50% inhibition at 10 μM)
- A5: inhibition of radioligand binding (Human melanocortin (MC5); [125I]-NDP-αMSH, FlashPlate): + (“+” indicates greater than 50% inhibition at 10 μM)
- A1: inhibition of radioligand binding (Human δ-opioid (DOP); [3H]-Bremazocine, FlashPlate): − (“−” indicates less than 50% inhibition at 10 μM)
- A4: inhibition of radioligand binding (Human Melanocortin (MC4); [125I]-NDP-αMSH, FlashPlate): + (“+” indicates greater than 50% inhibition at 10 μM)
- A9: inhibition of radioligand binding ([2]; [125I]-PYY, FlashPlate): − (“−” indicates less than 50% inhibition at 10 μM)
- A2: inhibition of radioligand binding (Human κ-Opioid (KOP); [3H]-Diprenorphine, filtration): − (“−” indicates less than 50% inhibition at 10 μM)

Compound: CSC1O[C@H](COCc2ccc3ccccc3c2)[C@@H](O)[C@@H](OCc2ccc(-c3ccccc3)cc2)[C@H]1NC(=O)CCN (stereo partly shown) [compound 297]
- A8: inhibition of radioligand binding, human neurokinin (NK1) (Human neurokinin (NK1); [125I]-Substance P): + (“+” indicates greater than 50% inhibition at 10 μM)
- A11: inhibition of radioligand binding, mouse urotensin (mUR2) (Mouse urotensin (mUR2); [125I]-Urotensin II): − (“−” indicates less than 50% inhibition at 10 μM)
- A6: inhibition of radioligand binding, human melanin-concentrating hormone (MCH1) ([1]; [125I]-S36057): − (“−” indicates less than 50% inhibition at 10 μM)
- A10: inhibition of radioligand binding, human opioid (ORL1) (Human opioid (ORL1); [125I]-Nociceptin): − (“−” indicates less than 50% inhibition at 10 μM)
- A7: inhibition of radioligand binding, human μ-opioid (MOP) (Human μ-opioid (MOP); [3H]-Naloxone): − (“−” indicates less than 50% inhibition at 10 μM)
- A3: inhibition of radioligand binding, human melanocortin (MC3) (Human Melanocortin (MC3); [125I]-NDP-αMSH): − (“−” indicates less than 50% inhibition at 10 μM)
- A5: inhibition of radioligand binding, human melanocortin (MC5) (Human melanocortin (MC5); [125I]-NDP-αMSH): − (“−” indicates less than 50% inhibition at 10 μM)
- A1: inhibition of radioligand binding, human δ-opioid (DOP) (Human δ-opioid (DOP); [3H]-Bremazocine): − (“−” indicates less than 50% inhibition at 10 μM)
- A4: inhibition of radioligand binding, human melanocortin (MC4) (Human Melanocortin (MC4); [125I]-NDP-αMSH): − (“−” indicates less than 50% inhibition at 10 μM)
- A9: inhibition of radioligand binding, human neuropeptide Y (NPY-Y1) ([2]; [125I]-PYY): − (“−” indicates less than 50% inhibition at 10 μM)
- A2: inhibition of radioligand binding, human κ-opioid (KOP) (Human κ-Opioid (KOP); [3H]-Diprenorphine): − (“−” indicates less than 50% inhibition at 10 μM)

Compound: CO[C@H]1[C@H](O)[C@@H](COCc2ccc3ccccc3c2)OC(OCc2ccc3ccccc3c2)[C@@H]1NC(=O)CCNC(=N)N (stereo partly shown) [compound 71]
- A8 radioligand binding inhibition (Human neurokinin (NK1)): + (“+” indicates greater than 50% inhibition at 10 μM)
- A11 radioligand binding inhibition (Mouse urotensin (mUR2)): − (“−” indicates less than 50% inhibition at 10 μM)
- A6 radioligand binding inhibition [1]: + (“+” indicates greater than 50% inhibition at 10 μM)
- A10 radioligand binding inhibition (Human opioid (ORL1); human ORL1 membranes): + (“+” indicates greater than 50% inhibition at 10 μM)
- A7 radioligand binding inhibition (Human μ-opioid (MOP)): + (“+” indicates greater than 50% inhibition at 10 μM)
- A3 radioligand binding inhibition (Human Melanocortin (MC3)): + (“+” indicates greater than 50% inhibition at 10 μM)
- A5 radioligand binding inhibition (Human melanocortin (MC5)): + (“+” indicates greater than 50% inhibition at 10 μM)
- A1 radioligand binding inhibition (Human δ-opioid (DOP)): − (“−” indicates less than 50% inhibition at 10 μM)
- A4 radioligand binding inhibition (Human Melanocortin (MC4)): + (“+” indicates greater than 50% inhibition at 10 μM)
- A9 radioligand binding inhibition ([2]; human NPY-Y1 membranes): − (“−” indicates less than 50% inhibition at 10 μM)
- A2 radioligand binding inhibition (Human κ-Opioid (KOP)): + (“+” indicates greater than 50% inhibition at 10 μM)

Compound: NCCC(=O)NC1C(OCc2ccc3ccccc3c2)OC(COCc2ccccc2)C(O)C1OCc1ccc2ccccc2c1 (stereo not shown) [compound 385]
- A8: inhibition of radioligand binding (Human neurokinin (NK1); [125I]-Substance P, human NK1 membranes): + (“+” indicates greater than 50% inhibition at 10 μM)
- A11: inhibition of radioligand binding (Mouse urotensin (mUR2); [125I]-Urotensin II, mouse mUR2 membranes): − (“−” indicates less than 50% inhibition at 10 μM)
- A6: inhibition of radioligand binding ([1]; [125I]-S36057, human MCH1 membranes): + (“+” indicates greater than 50% inhibition at 10 μM)
- A10: inhibition of radioligand binding (Human opioid (ORL1); [125I]-Nociceptin, human ORL1 membranes): − (“−” indicates less than 50% inhibition at 10 μM)
- A7: inhibition of radioligand binding (Human μ-opioid (MOP); [3H]-Naloxone, human MOP membranes): − (“−” indicates less than 50% inhibition at 10 μM)
- A3: inhibition of radioligand binding (Human Melanocortin (MC3); [125I]-NDP-αMSH, human MC3 membranes): + (“+” indicates greater than 50% inhibition at 10 μM)
- A5: inhibition of radioligand binding (Human melanocortin (MC5); [125I]-NDP-αMSH, human MC5 membranes): + (“+” indicates greater than 50% inhibition at 10 μM)
- A1: inhibition of radioligand binding (Human δ-opioid (DOP); [3H]-Bremazocine, human DOP membranes): − (“−” indicates less than 50% inhibition at 10 μM)
- A4: inhibition of radioligand binding (Human Melanocortin (MC4); [125I]-NDP-αMSH, human MC4 membranes): + (“+” indicates greater than 50% inhibition at 10 μM)
- A9: inhibition of radioligand binding ([2]; [125I]-PYY, human NPY-Y1 membranes): − (“−” indicates less than 50% inhibition at 10 μM)
- A2: inhibition of radioligand binding (Human κ-Opioid (KOP); [3H]-Diprenorphine, human KOP membranes): − (“−” indicates less than 50% inhibition at 10 μM)

Compound: COC[C@H]1OC(OCCc2ccccc2)[C@H](NC(=O)CCNC(=N)N)[C@@H](OCc2ccc(Cl)cc2)[C@@H]1O (stereo partly shown) [compound 49]
- A8 radioligand binding inhibition (Human neurokinin (NK1)): + (“+” indicates greater than 50% inhibition at 10 μM)
- A11 radioligand binding inhibition (Mouse urotensin (mUR2)): − (“−” indicates less than 50% inhibition at 10 μM)
- A6 radioligand binding inhibition [1]: − (“−” indicates less than 50% inhibition at 10 μM)
- A10 radioligand binding inhibition (Human opioid (ORL1); human ORL1 membranes): − (“−” indicates less than 50% inhibition at 10 μM)
- A7 radioligand binding inhibition (Human μ-opioid (MOP)): − (“−” indicates less than 50% inhibition at 10 μM)
- A3 radioligand binding inhibition (Human Melanocortin (MC3)): − (“−” indicates less than 50% inhibition at 10 μM)
- A5 radioligand binding inhibition (Human melanocortin (MC5)): − (“−” indicates less than 50% inhibition at 10 μM)
- A1 radioligand binding inhibition (Human δ-opioid (DOP)): − (“−” indicates less than 50% inhibition at 10 μM)
- A4 radioligand binding inhibition (Human Melanocortin (MC4)): + (“+” indicates greater than 50% inhibition at 10 μM)
- A9 radioligand binding inhibition ([2]; human NPY-Y1 membranes): − (“−” indicates less than 50% inhibition at 10 μM)
- A2 radioligand binding inhibition (Human κ-Opioid (KOP)): − (“−” indicates less than 50% inhibition at 10 μM)
